Reference: patent publication US12655101B2, “Small molecules with antibacterial activity” (NEW MEXICO TECH UNIVERSITY RESEARCH PARK CORPORATION, priority 2021, dated 2026)
In brackets after ≈: the same amount, converted by molar mass. Read-outs that look alike come from different tables or passages of the source.

How the values were obtained:
Type in all cases: cell-based
[1] = tested on: drug-resistant A. baumannii strains obtained from the CDC and Prevention Antimicrobial Isolate Bank; experiment: MIC on drug-resistant A. baumannii strains from the CDC Antimicrobial Isolate Bank; details: Acinetobacter baumannii
A. baumannii ATCC 15151 [2] = experiment: MIC on A. baumannii ATCC 15151; details: Acinetobacter baumannii, ATCC15151; A. baumannii ATCC 15151 (heading of Example 9)
A. baumannii = experiment: Synergy with PME (Table 7)
A. baumannii ATCC 15151 [3] = experiment: ATP decrease (luciferase); details: 1xMIC and 2xMIC; 25 minutes
HeLa cells [4] = experiment: HeLa cell toxicity IC50 (MTT); details: Homo sapiens, 10% FBS
Experimental: HeLa cells: HeLa cells were trypsinized and counted in number of cells/mL using a hemocytometer. Cells were then plated at 4×10^3 HeLa cells/100 μL in tissue culture-treated 96-well plates in DMEM+1% penicillin/streptomycin (P/S)+10% FBS. HeLa cells were treated with 100 μM of a compound of interest and serially diluted two-fold. Samples were also prepared with no treatment, 1% DMSO, and 100 μM PAO. The cells were incubated for 48 hours at 37° C. in a humidified incubator with 5% CO2. 10% v/v MTT reagent (5 mg/mL stock) was added to each sample, and the samples were incubated for 2 hours before removing the supernatant and solubilizing the samples in 100 μL DMSO. OD readings were obtained at 595 nm. IC50 values were reported.

[5] = tested on: A. baumannii ATCC BAA-1797; experiment: MIC on A. baumannii ATCC BAA-1797; details: Acinetobacter baumannii
Method in brief: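 Cells adjusted to ~5×10^5 CFU/mL in MHB or MHB with 10%, 20% or 40% FBS, treated with two-fold serial compound dilutions in glass tubes and incubated 18 hours at 37° C. Growth read visually or by MTT (10% v/v, 10 min) with OD at 595 nm.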

[6] = tested on: RecA-GFP fusion protein in E. coli MG1655; experiment: Inhibition of norfloxacin-triggered RecA-GFP induction in E. coli MG1655
Experimental: An increase in DNA damage-induced RecA protein expression is required for identification and repair of DNA lesions. LexA-repressed transcription of a norfloxacin-triggered SOS response was measured by detecting an increase in RecA-GFP fusion protein fluorescence in an E. coli recombinant model. The compounds of the disclosure inhibited RecA-GFP induction and presumably, the concurrent SOS response. Inhibition of RecA-GFP expression correlated with an increase in cell death, most likely as a result of ALD activation. Sub-potent concentrations of Polymixin E were used to facilitate entry of the compounds into cells.
E. coli MG1655 was grown from a glycerol stock by placing a small volume of cells onto a MHA plate. The MHA plate was incubated overnight at 37° C. A single colony was subsequently used to inoculate MHB+10 μg/mL kanamycin to obtain a bacterial broth suspension. This was grown in at 37° C. on a rotary shaking incubator (100 rpm) for 12 hours. The bacterial cell concentration was adjusted to ˜5×10^5 colony forming units per milliliter (CFU/mL) in MHB using optical density at 595 nm. Treated cells with polymyxin E (PME) or norfloxacin (in μg/ml) at indicated concentrations for 30 minutes at 37° C. and then added a compound of the disclosure at indicated micromolar concentrations. Incubated for 3.5 hours at 37° C. Cell samples were read on the flow cytometer to detect (green fluorescent) RLU RecA expression and/or shutdown.
E. coli MG1655 was grown from a glycerol stock by placing a small volume of cells onto a MHA plate. The MHA plate was incubated overnight at 37° C. A single colony was subsequently used to inoculate MHB+10 μg/mL kanamycin to obtain a bacterial broth suspension. The MHB broth suspension was grown at 37° C. on a rotary shaking incubator (100 rpm) for 12 hours. The bacterial cell concentration was adjusted to ˜5×10^5 CFU/mL in MHB using OD at 595 nm.
Cells were treated with 0.03 μg/mL and 0.06 μg/mL norfloxacin for 30 minutes at 37° C. Then, 100 μM of the compounds were added. The cells were incubated for 3.5 hours at 37° C. 200 μL aliquots were removed and read by a flow cytometer to detect RecA production and/or shutdown. The cells were incubated for an additional 18 hours at 37° C. to assess overall toxicity.

A. baumannii ATCC 1515 = experiment: Membrane depolarization detected by DiOC2(3); details: 1xMIC; for cell membrane depolarization: 20 μM CCCP, 25 minutes; for cell membrane depolarization over time: 10, 20, 30, and 50 minutes
HeLa cells [7] = experiment: HeLa cell toxicity IC50 (MTT); details: Homo sapiens
[8] = tested on: A. baumannii ATCC BAA-1797; experiment: Colony counts of A. baumannii ATCC BAA-1797 treated with 4xMIC for 16 hours; details: for kill of A. baumannii ATCC BAA-1797: 4xMIC (24 μM Compound 25, 24 μM Compound 26, 100 μM Compound 27, 48 μM Compound 14, 100 μM Compound 15)
[9] = 18 h, A. baumannii CDC AR033, 18 hours, read-out: MIC values for AR033
[10] = HeLa, Table 7, read-out: IC50 on HeLa in 10% FBS
[11] = HeLa cells, read-out: IC50 10% FBS
[12] = ATCC 1797 / ATCC BAA-1797, 0% FBS, read-out: MIC (μM) in MDR A. baumannii ATCC 1797 0% FBS
[13] = ATCC 1797 / ATCC BAA-1797, 10% FBS, read-out: MIC (μM) in MDR A. baumannii ATCC 1797 10% FBS
[14] = ATCC 1797 / ATCC BAA-1797, read-out: MIC (μM) in MDR A. baumannii ATCC 1797 40% FBS, 40% FBS
[15] = ATCCBAA1797, 18 h, read-out: MIC in the presence of 40% FBS, A. baumannii ATCC BAA-1797, 40% FBS
[16] = ATCCBAA1797, Table 7, 10% FBS, read-out: MIC in 10% FBS
[17] = ATCCBAA1797, Table 7, no serum stated, read-out: MIC
[18] = ATCCBAA1797, read-out: MIC in 40% FBS (μM), Table 7, 40% FBS
[19] = HeLa, read-out: IC50 on HeLa in 40% FBS, Table 7
[20] = read-out: IC50 40% FBS, HeLa cells
[21] = 18 h, A. baumannii CDC AR083, 18 hours, read-out: MIC values for AR083
[22] = ATCCBAA1797, A. baumannii ATCC BAA-1797, absence of serum, read-out: MIC in the absence of serum

Row | SMILES | MIC [1, 9] | MIC (A. baumannii ATCC 15151 [2]) | Synergize with PME? (A. baumannii) | ATP decrease (A. baumannii ATCC 15151 [3]) | IC50 (HeLa cells [4]; [10]) | IC50 (HeLa cells [4]; [11]) | MIC [5, 12] | MIC [5, 13] | MIC [5, 14] | MIC [5, 15] | MIC [5, 16] | MIC [5, 17] | MIC [5, 18] | RecA attenuation with norflox on E. coli [6] | cell membrane depolarization (A. baumannii ATCC 1515) | IC50 (HeLa cells [7]; [19]) | IC50 (HeLa cells [7]; [20]) | Kill at 4X MIC at 16 hours [8] | kill of A. baumannii ATCC BAA-1797 [8] | MIC [1, 21] | also measured
1 | Nc1cccc2[nH]cc(/C=N/Nc3ccc(Cl)cc3)c12 [Compound 14, (E)-3-((2-(4-chlorophenyl)hydrazineylidene)methyl)-1H-indol-4-amine] | 25 µM (≈ 7.12 µg/mL) | 6 µM (≈ 1.71 µg/mL) | Yes, at 4 μM | caused a decrease in ATP | 36.7 ± 3.8 µM | 36.7 ± 3.8 µM | 6 µM (≈ 1.71 µg/mL) | > 100 µM | 50 µM (≈ 14.2 µg/mL) | 50 µM | > 100 µM | 6 µM (≈ 1.71 µg/mL) | 50 µM (≈ 14.2 µg/mL) | Yes | depolarized the cell membrane | 183 µM | 183 µM | 5-logs | ~5 orders of magnitude |  | MIC ([1]; 18 h, read-out: MIC values for AR083): 12.5 µM (≈ 3.56 µg/mL); MIC ([5]; ATCCBAA1797, read-out: MIC in the absence of serum): 12.5 µM (≈ 3.56 µg/mL); MIC ([5]; ATCCBAA1797, read-out: MIC in the presence of 40% human serum, A. baumannii ATCC BAA-1797, 40% human serum): > 100 µM
2 | Clc1ccc(N/N=C/c2c[nH]c3ccc(Br)cc23)cc1 [Compound 15, (E)-5-bromo-3-((2-(4-chlorophenyl)hydrazineylidene)methyl)-1H-indole] | 25 µM (≈ 8.72 µg/mL) | 12.5 µM (≈ 4.36 µg/mL) |  | caused a decrease in ATP | 20.9 ± 1.5 µM | 20.9 ± 1.5 µM | 12.5 µM (≈ 4.36 µg/mL) | > 100 µM | 50 µM (≈ 17.4 µg/mL) | 100 µM | > 100 µM | 12.5 µM (≈ 4.36 µg/mL) | > 100 µM | Yes |  | 67.4 µM | 67.4 µM | 6-logs | ~5 orders of magnitude | 12.5 µM (≈ 4.36 µg/mL) | MIC [5, 22]: 6 µM (≈ 2.09 µg/mL); cell membrane depolarization over time (A. baumannii ATCC 1515): caused the most depolarization
3 | Brc1ccc(N/N=C/c2c[nH]c3cccc(OCc4ccccc4)c23)cc1.Cl [Compound 25, (E)-2-((4-(benzyloxy)-1H-indol-3-yl)methylene)-1-(4-bromophenyl)hydrazin-1-ium chloride] | 6 µM | 3 µM | Yes, at 1 μM | caused a decrease in ATP | 30.4 ± 3.3 µM | 30.4 ± 3.3 µM | 6 µM | > 100 µM | 50 µM | < 50 µM | > 100 µM | 6 µM | 50 µM | Yes | depolarized the cell membrane | 101 µM | 101 µM | 5-logs | ~5 orders of magnitude | < 3 µM | MIC ([1]; AR bank # 33, SAMN04014874, read-out: Compound 25 MIC): 6 µM; MIC ([1]; AR bank # 35, SAMN04014876, read-out: Compound 25 MIC): 12.5 µM; MIC ([1]; AR bank # 36, SAMN04014877, read-out: Compound 25 MIC): 12.5 µM; MIC ([1]; AR bank # 37, SAMN04014878, read-out: Compound 25 MIC): 6 µM; MIC ([1]; AR bank # 45, SAMN04014886, read-out: Compound 25 MIC): 6 µM; MIC ([1]; AR bank # 52, SAMN04014893, read-out: Compound 25 MIC): 6 µM; MIC ([1]; AR bank # 56, SAMN04014897, read-out: Compound 25 MIC): 3 µM; MIC ([1]; AR bank # 63, SAMN04014904, read-out: Compound 25 MIC): 3 µM; MIC ([1]; AR bank # 70, SAMN04014911, read-out: Compound 25 MIC): 3 µM; MIC ([1]; AR bank # 78, SAMN04014919, read-out: Compound 25 MIC): 6 µM; MIC ([1]; AR bank # 83, SAMN04014924, read-out: Compound 25 MIC): 3 µM; MIC ([1]; AR bank # 88, SAMN04014929, read-out: Compound 25 MIC): 6 µM; MIC ([1]; AR bank # 101, SAMN04014942, read-out: Compound 25 MIC): 6 µM; MIC ([1]; AR bank # 102, SAMN04014943, read-out: Compound 25 MIC): 6 µM; MIC [5, 22]: 6 µM; cell membrane depolarization over time (A. baumannii ATCC 1515): depolarized the membrane the least
4 | Cl.Clc1ccc(N/N=C/c2c[nH]c3cccc(OCc4ccccc4)c23)cc1 [Compound 26, (E)-2-((4-(benzyloxy)-1H-indol-3-yl)methylene)-1-(4-chlorophenyl)hydrazin-1-ium] | 6 µM | 3 µM | Yes, at 1 μM | caused a decrease in ATP | 37.3 ± 1.8 µM | 37.3 ± 1.8 µM | 6 µM | > 100 µM | 100 µM | 50 µM | > 100 µM | 6 µM | 100 µM | Yes | depolarized the cell membrane | 58.2 µM | 58.2 µM | 5-logs | ~5 orders of magnitude | 6 µM | MIC ([5]; ATCCBAA1797, A. baumannii ATCC BAA-1797, 10% FBS, read-out: MIC in the presence of 10% FBS): > 100 µM; MIC [5, 22]: 5 µM
